Laboratory results as given in article PMC8213057, “Targeting ALK2: An Open Science Approach to Developing Therapeutics for the Treatment of Diffuse Intrinsic Pontine Glioma” (Journal of Medicinal Chemistry, 2020).

Tests used:
CAMK2g = CAMK2g (Homo sapiens, UniProt Q13555); experiment: biochemical; details: read-out: % enzyme activity, 1 μM; Run 1, Run 2
CDK9/cyclin T2 = CDK9/cyclin T2 (Homo sapiens, UniProt P50750); experiment: biochemical; details: read-out: % enzyme activity, 1 μM; Run 1, Run 2
MLCK2/MYLK2 = MLCK2/MYLK2 (Homo sapiens, UniProt Q9H1R3); details: 1 μM; Run 1, Run 2
KHS/MAP4K5 = target: T1, KHS/MAP4K5 (Homo sapiens, UniProt Q9Y4K4); experiment: 375-member kinase panel; assay type: biochemical; details: Run 1, Run 2; for % enzyme activity: 1 μM; for remaining activity at 1 µM: read-out: % enzyme activity, 1 μM
T1 construct: purchased Reaction Biology Corporation

RIPK4 = target: T2, RIPK4 (Homo sapiens, UniProt P57078); experiment: biochemical; details: read-out: % enzyme activity, 1 μM; Run 1, Run 2
T2 sequence (P57078 1-832): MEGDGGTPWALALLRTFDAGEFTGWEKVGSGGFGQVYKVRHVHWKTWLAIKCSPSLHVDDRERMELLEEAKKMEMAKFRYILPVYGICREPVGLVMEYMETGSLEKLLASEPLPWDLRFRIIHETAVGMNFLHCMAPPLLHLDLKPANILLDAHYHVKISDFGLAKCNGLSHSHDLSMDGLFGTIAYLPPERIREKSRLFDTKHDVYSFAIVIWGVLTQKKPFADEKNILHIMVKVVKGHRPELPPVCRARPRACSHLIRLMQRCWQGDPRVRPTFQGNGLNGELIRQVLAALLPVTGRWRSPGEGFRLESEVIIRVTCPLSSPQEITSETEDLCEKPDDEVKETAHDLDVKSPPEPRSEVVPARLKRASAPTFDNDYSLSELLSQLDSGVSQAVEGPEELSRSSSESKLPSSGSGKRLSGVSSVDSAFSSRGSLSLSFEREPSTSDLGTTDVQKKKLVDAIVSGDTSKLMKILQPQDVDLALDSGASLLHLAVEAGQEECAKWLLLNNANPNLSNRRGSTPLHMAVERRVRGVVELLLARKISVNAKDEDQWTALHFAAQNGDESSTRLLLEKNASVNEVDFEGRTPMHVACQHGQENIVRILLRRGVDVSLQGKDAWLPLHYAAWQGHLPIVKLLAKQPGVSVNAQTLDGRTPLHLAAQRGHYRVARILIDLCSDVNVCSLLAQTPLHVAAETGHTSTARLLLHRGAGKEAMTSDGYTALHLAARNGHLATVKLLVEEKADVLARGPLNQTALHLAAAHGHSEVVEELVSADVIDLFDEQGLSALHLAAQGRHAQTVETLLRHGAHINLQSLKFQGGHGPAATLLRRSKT

FGFR3 = FGFR3 (Homo sapiens, UniProt P22607); experiment: biochemical; details: read-out: % enzyme activity, 1 μM; Run 1, Run 2
PKG1a = target: T3, PKG1a (Homo sapiens, UniProt Q13976); details: 1 μM; Run 1, Run 2
T3 sequence (Q13976 1-671): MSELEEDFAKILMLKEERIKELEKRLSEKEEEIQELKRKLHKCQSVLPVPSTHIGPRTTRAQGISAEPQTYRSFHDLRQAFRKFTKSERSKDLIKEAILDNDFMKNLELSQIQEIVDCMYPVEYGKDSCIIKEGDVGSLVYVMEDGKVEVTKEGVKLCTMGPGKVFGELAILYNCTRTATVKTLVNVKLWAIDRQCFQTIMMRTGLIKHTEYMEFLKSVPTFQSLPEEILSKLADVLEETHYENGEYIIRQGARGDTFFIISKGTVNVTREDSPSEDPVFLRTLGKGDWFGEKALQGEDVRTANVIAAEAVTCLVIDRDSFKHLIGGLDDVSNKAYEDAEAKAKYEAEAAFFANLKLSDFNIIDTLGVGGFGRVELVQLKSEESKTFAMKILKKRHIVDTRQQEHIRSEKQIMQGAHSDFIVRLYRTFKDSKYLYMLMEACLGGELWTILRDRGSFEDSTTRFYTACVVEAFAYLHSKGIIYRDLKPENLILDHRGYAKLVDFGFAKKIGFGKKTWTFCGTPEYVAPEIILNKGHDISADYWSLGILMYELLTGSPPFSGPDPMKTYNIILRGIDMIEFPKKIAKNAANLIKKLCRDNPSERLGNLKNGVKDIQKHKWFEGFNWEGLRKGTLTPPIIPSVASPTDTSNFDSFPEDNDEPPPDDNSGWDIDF

DYRK1/DYRK1A = DYRK1/DYRK1A (Homo sapiens, UniProt Q13627); experiment: biochemical; details: read-out: % enzyme activity, 1 μM; Run 1, Run 2
MUSK = target: T4, MUSK (Homo sapiens, UniProt O15146); experiment: biochemical; details: read-out: % enzyme activity, 1 μM; Run 1, Run 2
T4 sequence (O15146 24-869): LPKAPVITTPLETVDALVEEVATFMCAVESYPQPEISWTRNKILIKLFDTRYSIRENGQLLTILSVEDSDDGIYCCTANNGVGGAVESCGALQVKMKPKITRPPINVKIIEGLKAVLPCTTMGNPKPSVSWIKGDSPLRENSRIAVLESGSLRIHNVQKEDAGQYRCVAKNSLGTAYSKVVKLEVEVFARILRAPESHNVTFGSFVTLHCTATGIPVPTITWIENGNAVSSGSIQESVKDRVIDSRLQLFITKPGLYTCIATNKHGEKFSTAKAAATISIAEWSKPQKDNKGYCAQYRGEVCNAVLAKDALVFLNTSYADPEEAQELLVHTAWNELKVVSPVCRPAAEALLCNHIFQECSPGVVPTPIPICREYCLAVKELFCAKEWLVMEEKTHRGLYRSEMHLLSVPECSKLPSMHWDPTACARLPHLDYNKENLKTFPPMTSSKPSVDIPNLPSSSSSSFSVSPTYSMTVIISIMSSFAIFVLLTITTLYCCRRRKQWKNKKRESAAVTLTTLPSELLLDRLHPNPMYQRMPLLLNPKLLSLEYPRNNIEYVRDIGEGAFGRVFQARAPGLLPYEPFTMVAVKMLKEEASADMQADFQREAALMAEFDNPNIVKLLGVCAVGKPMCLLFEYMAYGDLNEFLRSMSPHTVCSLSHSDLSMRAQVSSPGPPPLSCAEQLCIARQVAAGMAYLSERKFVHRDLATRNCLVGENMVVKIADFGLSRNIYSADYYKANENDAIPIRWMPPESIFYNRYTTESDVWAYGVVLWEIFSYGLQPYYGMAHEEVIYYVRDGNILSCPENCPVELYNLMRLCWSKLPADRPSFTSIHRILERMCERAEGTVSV

FLT4/VEGFR3 = FLT4/VEGFR3 (Homo sapiens, UniProt P35916); experiment: biochemical; details: read-out: % enzyme activity, 1 μM; Run 1, Run 2

T1 sequence (Q9Y4K4 whole entry): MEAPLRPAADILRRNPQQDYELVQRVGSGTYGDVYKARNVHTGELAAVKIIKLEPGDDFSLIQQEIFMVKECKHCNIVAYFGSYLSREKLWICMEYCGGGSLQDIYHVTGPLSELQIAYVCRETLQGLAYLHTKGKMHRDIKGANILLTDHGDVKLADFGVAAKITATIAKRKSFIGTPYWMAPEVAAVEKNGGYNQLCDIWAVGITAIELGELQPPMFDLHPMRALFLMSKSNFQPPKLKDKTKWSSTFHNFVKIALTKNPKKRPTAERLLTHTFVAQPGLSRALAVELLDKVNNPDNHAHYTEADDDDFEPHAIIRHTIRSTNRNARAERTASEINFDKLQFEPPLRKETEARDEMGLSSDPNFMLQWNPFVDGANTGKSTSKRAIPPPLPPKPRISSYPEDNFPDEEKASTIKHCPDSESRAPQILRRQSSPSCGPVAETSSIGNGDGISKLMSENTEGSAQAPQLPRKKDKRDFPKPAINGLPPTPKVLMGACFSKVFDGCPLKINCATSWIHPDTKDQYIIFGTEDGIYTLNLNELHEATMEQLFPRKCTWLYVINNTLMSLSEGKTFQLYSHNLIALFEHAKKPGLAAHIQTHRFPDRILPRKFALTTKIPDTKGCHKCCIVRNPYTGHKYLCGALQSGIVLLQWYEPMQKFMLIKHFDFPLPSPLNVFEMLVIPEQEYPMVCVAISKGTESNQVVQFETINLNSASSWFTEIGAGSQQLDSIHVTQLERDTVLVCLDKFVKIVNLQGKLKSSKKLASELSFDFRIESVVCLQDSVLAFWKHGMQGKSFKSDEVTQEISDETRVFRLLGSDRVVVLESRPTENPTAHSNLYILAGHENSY
FGFR3, sequence (P22607 23-806): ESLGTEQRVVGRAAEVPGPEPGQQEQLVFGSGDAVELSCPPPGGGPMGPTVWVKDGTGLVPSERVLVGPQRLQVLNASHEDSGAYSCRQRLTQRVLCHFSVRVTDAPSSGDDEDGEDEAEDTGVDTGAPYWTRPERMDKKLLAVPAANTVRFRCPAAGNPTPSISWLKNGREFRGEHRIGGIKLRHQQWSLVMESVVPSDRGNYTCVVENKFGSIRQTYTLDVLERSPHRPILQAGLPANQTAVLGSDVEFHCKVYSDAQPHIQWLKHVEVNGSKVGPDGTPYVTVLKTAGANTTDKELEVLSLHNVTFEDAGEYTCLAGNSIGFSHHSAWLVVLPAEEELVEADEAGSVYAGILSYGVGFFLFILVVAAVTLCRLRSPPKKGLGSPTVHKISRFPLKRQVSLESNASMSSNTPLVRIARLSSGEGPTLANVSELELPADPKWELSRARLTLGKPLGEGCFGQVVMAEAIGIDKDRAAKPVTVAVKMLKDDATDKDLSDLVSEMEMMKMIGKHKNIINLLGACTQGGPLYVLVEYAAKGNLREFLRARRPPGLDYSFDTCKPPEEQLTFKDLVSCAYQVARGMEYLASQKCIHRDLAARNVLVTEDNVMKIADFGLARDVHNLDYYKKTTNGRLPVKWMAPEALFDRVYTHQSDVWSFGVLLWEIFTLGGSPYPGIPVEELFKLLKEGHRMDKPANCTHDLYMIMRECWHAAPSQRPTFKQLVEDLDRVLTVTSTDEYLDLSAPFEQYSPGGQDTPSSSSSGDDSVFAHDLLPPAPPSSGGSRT
CAMK2g, sequence (Q13555 whole entry): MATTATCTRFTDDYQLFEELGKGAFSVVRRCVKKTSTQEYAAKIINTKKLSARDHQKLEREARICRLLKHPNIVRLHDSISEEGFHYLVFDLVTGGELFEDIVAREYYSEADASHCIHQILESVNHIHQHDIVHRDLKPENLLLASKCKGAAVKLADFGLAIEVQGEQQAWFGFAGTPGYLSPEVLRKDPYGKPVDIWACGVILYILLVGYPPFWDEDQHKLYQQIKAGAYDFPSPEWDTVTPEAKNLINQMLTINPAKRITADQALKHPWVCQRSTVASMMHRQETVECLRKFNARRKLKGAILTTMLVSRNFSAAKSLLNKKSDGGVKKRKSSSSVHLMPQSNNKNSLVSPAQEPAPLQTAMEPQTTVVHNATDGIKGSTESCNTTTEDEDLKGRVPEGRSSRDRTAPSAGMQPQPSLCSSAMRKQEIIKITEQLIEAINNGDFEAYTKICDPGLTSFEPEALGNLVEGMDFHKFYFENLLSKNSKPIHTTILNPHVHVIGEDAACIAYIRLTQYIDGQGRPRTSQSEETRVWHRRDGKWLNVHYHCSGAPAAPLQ
MLCK2/MYLK2, sequence (Q9H1R3 whole entry): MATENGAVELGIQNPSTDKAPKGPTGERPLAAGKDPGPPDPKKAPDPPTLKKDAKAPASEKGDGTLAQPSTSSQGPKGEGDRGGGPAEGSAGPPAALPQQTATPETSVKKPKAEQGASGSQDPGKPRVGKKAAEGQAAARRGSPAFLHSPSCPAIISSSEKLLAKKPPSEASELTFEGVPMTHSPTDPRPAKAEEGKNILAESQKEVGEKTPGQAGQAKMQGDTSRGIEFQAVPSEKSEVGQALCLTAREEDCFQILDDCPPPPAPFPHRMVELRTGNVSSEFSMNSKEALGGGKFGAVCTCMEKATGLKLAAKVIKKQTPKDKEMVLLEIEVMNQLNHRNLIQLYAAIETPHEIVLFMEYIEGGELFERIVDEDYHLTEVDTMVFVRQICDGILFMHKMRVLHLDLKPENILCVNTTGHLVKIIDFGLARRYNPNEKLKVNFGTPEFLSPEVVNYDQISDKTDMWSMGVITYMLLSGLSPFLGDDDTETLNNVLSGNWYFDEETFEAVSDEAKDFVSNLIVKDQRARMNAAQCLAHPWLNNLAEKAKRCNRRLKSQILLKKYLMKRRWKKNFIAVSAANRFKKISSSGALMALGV
CDK9/cyclin T2, sequence (P50750 whole entry): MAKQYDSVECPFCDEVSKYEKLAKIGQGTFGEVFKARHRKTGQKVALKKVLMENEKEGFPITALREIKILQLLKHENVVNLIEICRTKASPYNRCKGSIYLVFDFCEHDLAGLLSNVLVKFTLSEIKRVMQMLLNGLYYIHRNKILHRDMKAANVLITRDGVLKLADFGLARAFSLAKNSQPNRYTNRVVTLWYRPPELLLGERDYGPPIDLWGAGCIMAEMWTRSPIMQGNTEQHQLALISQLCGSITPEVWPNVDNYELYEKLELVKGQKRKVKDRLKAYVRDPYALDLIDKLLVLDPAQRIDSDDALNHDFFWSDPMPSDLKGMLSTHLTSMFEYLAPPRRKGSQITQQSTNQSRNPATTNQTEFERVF
CDK9/cyclin T2, sequence (O60583 whole entry partner): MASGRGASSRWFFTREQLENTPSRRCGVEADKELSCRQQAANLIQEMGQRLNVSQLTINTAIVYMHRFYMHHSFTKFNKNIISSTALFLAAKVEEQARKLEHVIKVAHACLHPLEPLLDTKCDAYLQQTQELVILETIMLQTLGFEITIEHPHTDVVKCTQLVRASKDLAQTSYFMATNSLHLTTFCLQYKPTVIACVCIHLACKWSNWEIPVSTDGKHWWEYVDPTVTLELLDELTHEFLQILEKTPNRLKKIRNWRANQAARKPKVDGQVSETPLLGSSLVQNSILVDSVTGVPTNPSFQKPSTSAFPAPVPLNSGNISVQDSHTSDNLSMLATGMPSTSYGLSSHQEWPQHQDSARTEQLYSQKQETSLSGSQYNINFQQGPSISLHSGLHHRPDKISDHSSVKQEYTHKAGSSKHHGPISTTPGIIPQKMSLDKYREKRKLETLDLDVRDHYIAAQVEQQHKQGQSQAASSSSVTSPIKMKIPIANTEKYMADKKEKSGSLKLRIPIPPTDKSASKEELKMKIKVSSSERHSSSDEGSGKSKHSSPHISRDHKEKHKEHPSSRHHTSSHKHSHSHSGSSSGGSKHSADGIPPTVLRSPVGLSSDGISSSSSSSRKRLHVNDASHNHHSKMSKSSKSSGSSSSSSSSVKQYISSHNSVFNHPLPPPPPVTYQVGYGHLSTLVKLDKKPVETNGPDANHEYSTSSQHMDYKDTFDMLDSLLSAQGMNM

COc1cc(-c2cncc(-c3ccc(N4CCN(C)CC4)cc3)c2C)cc(F)c1C(N)=O [Compound 26a, 2-Fluoro-6-methoxy-4-(4-methyl-5-(4-(4-methylpiperazin-1-yl)phenyl)pyridin-3-yl)benzamide]
remaining activity at 1 µM (CAMK2g): 103% | remaining activity at 1 µM (CDK9/cyclin T2): 100% | % enzyme activity (MLCK2/MYLK2): 66.59% | % enzyme activity (KHS/MAP4K5): 39.28% | remaining activity at 1 µM (KHS/MAP4K5): 39.7% | remaining activity at 1 µM (RIPK4): 75.5% | remaining activity at 1 µM (FGFR3): 101% | % enzyme activity (PKG1a): 97.81% | remaining activity at 1 µM (DYRK1/DYRK1A): 43.3% | remaining activity at 1 µM (MUSK): 92.8% | remaining activity at 1 µM (FLT4/VEGFR3): 98.4%

COc1cc(-c2cncc(-c3ccc(N4C[C@@H](C)N(C)[C@@H](C)C4)cc3)c2C)cc(F)c1C(N)=O [Compound 26c, 2-Fluoro-6-methoxy-4-(4-methyl-5-(4-((3R,5S)-3,4,5-trimethylpiperazin-1-yl)phenyl)pyridin-3-yl)benzamide]
remaining activity at 1 µM (CAMK2g): 110% | remaining activity at 1 µM (CDK9/cyclin T2): 102% | % enzyme activity (MLCK2/MYLK2): 82.74% | % enzyme activity (KHS/MAP4K5): 40.60% | remaining activity at 1 µM (KHS/MAP4K5): 41.7% | remaining activity at 1 µM (RIPK4): 86.1% | remaining activity at 1 µM (FGFR3): 103% | % enzyme activity (PKG1a): 101.45% | remaining activity at 1 µM (DYRK1/DYRK1A): 62.4% | remaining activity at 1 µM (MUSK): 92.2% | remaining activity at 1 µM (FLT4/VEGFR3): 97.1%
